{"source": "patent US10035810B2", "about": "“5,6-dihydro-4H-benzo[b]thieno-[2,3-d]azepine derivative” (PULMOCIDE LIMITED, priority 2014, dated 2018)", "key": {"[1]": {"system": "RSV NS-1 gene transcripts", "assay": "RSV infection in cotton rats: RSV NS-1 gene transcript in lung (qRT-PCR)", "assay_type": "in vivo, cotton rats (Sigmodon hispidus)", "conditions": "infected cotton rats", "method": "RSV Infection in Cotton Rats\nMale Sigmodon hispidus cotton rats between 6 and 8 weeks of age were infected with hRSV/A/Long (ATCC, Manassas, Va.; 10^5 pfu) in a volume of 0.1 mL of sucrose stabilizing media. Compound (I) was dissolved in 100% DMSO (at 3.3, 10, 33 and 100 mg/mL), then diluted at 1:10 in isotonic saline to achieve 10% DMSO in all treatments. Formulations were then sonicated to produce suspensions. The resulting suspensions were administered intranasally (50 μL) by pipette 4 hr before infection (on day 0), and then on days 1, 2 and 3 post infection. Four days after RSV challenge, the animals were euthanised and the lungs were removed. The left lobe was used for viral titration via plaque assay and the lingular lobe for RSV/A/Long NS-1 qRT-PCR and cytokine qRT-PCR.\nTotal RNA was also extracted from homogenized lung tissue (RNeasy purification kit; Qiagen) and a sample (1 μg) was used to prepare cDNA using QuantiTect Reverse Transcription Kit (Qiagen). For real-time PCR reactions (RSV NS-1 and RANTES genes) the QuantiFast SYBR® Green PCR Kit (Qiagen) was used in a final volume of 25 μL, with final primer concentrations of 0.5 μM. […] Baseline cycles and cycle threshold (Ct) were calculated by the iQ5 software in the PCR Base Line Subtracted Curve Fit mode. […] The mRNA levels were expressed as the geometric mean±SEM for all animals in a group."}, "hRSV/A/Long": {"system": "hRSV/A/Long", "assay": "RSV infection in cotton rats: virus titre in lung homogenate (plaque assay)", "assay_type": "in vivo, cotton rats (Sigmodon hispidus)"}, "RSV A2 F-protein": {"system": "RSV A2 F-protein", "assay": "RSV F protein expression in BEAS2B bronchial epithelial cells", "assay_type": "cell-based", "conditions": "human respiratory syncytial virus, BEAS-2B, 72 h, read-out: RSV A2 F-protein IC50", "method": "Assessment of RSV F Protein Expression in BEAS2B Bronchial Epithelial Cells\nAn early event which follows the infection of epithelial cells by RSV is the expression of RSV F-protein on the cells' surface. BEAS2B cells (SV40-immortalised human bronchial epithelial cell line) were grown in 96 well plates. Once more than 70% confluent, cells were infected with RSV A2 (#0709161v, NCPV, Public Health England, Wiltshire) at an MOI of 0.01 in clear RPMI-1640 medium (Life technologies, Paisley, UK) with 2% FBS (Life technologies, Paisley, UK), and incubated for 3 days (37° C./5% CO2).\nSupernatant was aspirated and the cells were fixed with 4% formaldehyde (100 μL in PBS solution) for 20 min, washed 3 times with washing buffer (200 μL; PBS containing 0.05% Tween-20) and incubated with blocking solution (100 μL; 5% Marvel milk in PBS) for 1 hr. […] The resultant signal was determined colourimetrically (OD: 450 nm with a reference wavelength of 655 nm) in a microplate reader (Multiskan FC®, ThermoFisher Scientific). […] After washing with PBS (200 μL) three times, 1% SDS (100 μL) was added to each well, and plates were shaken lightly for 1 hr prior to reading the absorbance at 595 nm. The measured OD450-655 readings were corrected for cell number by dividing the OD450-655 by the OD595 readings. […]"}, "RSV A2 strain": {"system": "RSV A2 strain", "assay": "RSV A2-induced CPE in HEp2 cells", "assay_type": "cell-based", "conditions": "human respiratory syncytial virus", "method": "Assessment of RSV Induced CPE in HEp2 Cells\nHEp2 cells were seeded (10^3/well/50 μL) in 384-well plates (Catalogue number 353962, BD Falcon, Oxford, UK) in […] containing 2 mM L-glutamine and 1 mM sodium pyruvate one day before infection. RSV A2 strain (#0709161v, NCPV, Public Health England, Wiltshire) or RSV B Washington strain (VR-1580, ATCC, Manassas, Va. 20108) virus solutions were prepared in serum free-DMEM with 2 mM L-glutamine and 1 mM sodium pyruvate, and then added (50 μL/well) to achieve a final virus concentration of 1 MOI. Simultaneously Compound (I) (0.5 μL DMSO solution) was added to 100 μL of HEp2 cell culture with virus solution to provide a final DMSO solution of 0.5%. Plates were incubated (37° C./5% CO2) for 5 days for studies using RSV A2 strain or 6 days for those using RSV B strain, and then resazurin sodium salt (5 μL of 0.03% solution; Sigma-Aldrich, Dorset, UK) was added to each well and the plate incubated for a further 6 hr (37° C./5% CO2). The fluorescence of each well [545 nm (excitation)/590 nm (emission)] was determined using a multi-scanner (Clariostar: BMG, Buckinghamshire, UK). The percentage inhibition for each well was calculated and the IC50, IC75 and IC90 values were calculated from the concentration-response curve generated for Compound (I)."}}, "data": [{"compound": "Cc1cnc(N2CC3(CCOCC3)C2)c(C(=O)Nc2ccc(C(=O)N3CCc4cc(C(=O)Nc5c(C)cccc5F)sc4-c4ccccc43)cc2)c1", "note": "[Compound (I), N-(2-fluoro-6-methylphenyl)-6-(4-(5-methyl-2-(7-oxa-2-azaspiro[3.5]nonan-2-yl)nicotinamido)benzoyl)-5,6-dihydro-4H-benzo[b]thieno[2,3-d]azepine-2-carboxamide]", "values": [{"measurement": "RSV NS-1 gene transcripts in lung (in words)", "setting": "[1]", "value": "dose-dependent inhibition of RSV NS-1 gene transcripts"}, {"measurement": "Virus titre in the lungs (in words)", "setting": "hRSV/A/Long; RSV A2 infected cotton rats", "value": "completely inhibited virus titre"}, {"measurement": "Virus titre in lung homogenates (in words)", "setting": "hRSV/A/Long; infected cotton rats, day 4", "value": "potent dose-dependent inhibition of virus titre"}, {"measurement": "IC50", "setting": "RSV A2 F-protein", "value": 0.17, "unit": "nM"}, {"measurement": "IC50", "setting": "RSV A2 strain; HEp-2, 120 h, 1 MOI, 5 days", "value": 0.017, "unit": "nM"}, {"measurement": "inhibition at 0.1 µg/mL", "setting": "RSV A2 strain; HEp-2, at 0.1 μg/mL", "value": 100, "unit": "%"}]}]}
